Data taken from patent US20250154156A1, “QUINAZOLINE DERIVATIVE AS KRAS G12C MUTATION INHIBITOR” (Shenzhen Forward Pharmaceuticals Co., Limited, priority 2022, published 2025).

What was measured:
[1] = tested on: NCI-H358 cells (KRAS G12C mutant cell line); test: Proliferation experiment of NCI-H358 cells (Cell Titer-Glo); type: cell-based; conditions: Homo sapiens, 72 hours, read-out: Test Example 1 IC50
Description: (§1) According to the solution described in Cell Titer-Glo Luminescent cell Viability Assay (Promega catalog number #G7570) of Promega Corporation, the number of living cells in the culture was detected. 90 μL of cells (8,000 cells/well) were cultured in a growth medium in a Corning black transparent bottom 96-well plate and were cultured overnight in a 5% CO2 humidified incubator at 37° C. The compound diluted serially in 100% DMSO was added to the cells by a pipette, and the cells were cultured for another 72 hours. 100 μL of the well-mixed Cell Titer-Glo reagent was added to the cells in the 96-well culture plate to lyse the cells and gently mixed. Subsequently, […] was detected on an Envision microplate detector, and the data of each compound was obtained. Finally, the data was input into a suitable software package (such as Prism) for curve fitting analysis.

[2] = tested on: NCI-H23 cells (KRAS G12C mutant cell line); test: Proliferation experiment of NCI-H23 cells (Cell Titer-Glo); type: cell-based; conditions: Homo sapiens, 72 hours, read-out: Test Example 2 IC50
Description: Human lung cancer cell line NCI-H23 (ATCC, CRL-5800) was a KRAS G12C mutant cell line.
as §1

[3] = target: Ba/F3 (KRAS-G12C-Y96C) cells (Homo sapiens, UniProt P01116, G12C/Y96C, cells depend on it); test: Proliferation experiment of Ba/F3 (KRAS-G12C-Y96C) cells; type: cell-based; conditions: 72 hours, Cell Titer-Glo, read-out: Test Example 3 IC50
Ba/F3 (KRAS-G12C-Y96C) cells, sequence (P01116 whole entry G12C/Y96C): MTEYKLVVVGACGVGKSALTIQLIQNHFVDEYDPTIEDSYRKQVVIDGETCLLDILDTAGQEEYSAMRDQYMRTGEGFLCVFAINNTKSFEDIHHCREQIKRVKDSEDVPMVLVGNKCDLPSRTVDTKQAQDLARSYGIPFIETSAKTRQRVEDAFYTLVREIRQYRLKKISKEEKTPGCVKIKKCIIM
Description: Engineered cell strain Ba/F3 (KRAS-G12C-Y96C) was a cell strain constructed by the inventors according to the methods described in Warmuth M. et al, Curr Opin Oncol. […] The cells were grown at 37° C. in a humidified incubator with […].
as §1, with “(3,000” for “(8,000”, “[…]” for “5%”

[4] = target: Ba/F3 (KRAS-G12C-H95Q) cells (Homo sapiens, UniProt P01116, G12C/H95Q, cells depend on it); test: Proliferation experiment of Ba/F3 (KRAS-G12C-H95Q) cells; type: cell-based; conditions: 72 hours, Cell Titer-Glo, read-out: Test Example 4 IC50
Ba/F3 (KRAS-G12C-H95Q) cells, sequence (P01116 whole entry G12C/H95Q): as the sequence (P01116 whole entry G12C/Y96C) above, with H95Q, C96Y counted along it
Description: Engineered cell strain Ba/F3 (KRAS-G12C-H95Q) was a cell strain constructed by the inventors according to the methods described in Warmuth M. et al, Curr Opin Oncol. […] The cells were grown at 37° C. in a humidified incubator with […].
as §1, with “(3,000” for “(8,000”

[5] = target: Ba/F3 (KRAS-G12C-R68S) cells (Homo sapiens, UniProt P01116, G12C/R68S, cells depend on it); test: Proliferation experiment of Ba/F3 (KRAS-G12C-R68S) cells; type: cell-based; conditions: 72 hours, Cell Titer-Glo, read-out: Test Example 5 IC50
Ba/F3 (KRAS-G12C-R68S) cells, sequence (P01116 whole entry G12C/R68S): as the sequence (P01116 whole entry G12C/Y96C) above, with R68S, C96Y counted along it
Description: Engineered cell strain Ba/F3 (KRAS-G12C-R68S) was a cell strain constructed by the inventors according to the methods described in Warmuth M. et al, Curr Opin Oncol. […] The cells were grown at 37° C. in a humidified incubator with 5% CO2.
as §1, with “(3,000” for “(8,000”

[6] = target: Ba/F3 (KRAS-G12C-Q99L) cells (Homo sapiens, UniProt P01116, G12C/Q99L, cells depend on it); test: Proliferation experiment of Ba/F3 (KRAS-G12C-Q99L) cells; type: cell-based; conditions: 72 hours, Cell Titer-Glo, read-out: Test Example 6 IC50
Ba/F3 (KRAS-G12C-Q99L) cells, sequence (P01116 whole entry G12C/Q99L): as the sequence (P01116 whole entry G12C/Y96C) above, with C96Y, Q99L counted along it
Description: Engineered cell strain Ba/F3 (KRAS-G12C-Q99L) was a cell strain constructed by the inventors according to the methods described in Warmuth M. et al, Curr Opin Oncol. […] The cells were grown at 37° C. in a humidified incubator with 5% CO2.
as §1, with “(3,000” for “(8,000”

[7] = In vitro human liver microsome stability experiment; type: in vitro ADME; conditions: human liver microsomes; for half-life / microsomal CLint: 1 mg/mL microsome protein, NADPH, 37° C.; for microsomal CLint: read-out: CLint(mic); for CLint scaled: scaled to liver
Description: Eight 96-well incubation plates were prepared, named [NT], Blank60, and NCF60, respectively. […] No compound to be tested or control compound was added to the Blank60 plate and samples were taken after 60 minutes of incubation. The NCF60 plate, in which a potassium phosphate buffer was used instead of an NADPH regeneration system solution (Sigma, N0505), was incubated for 60 minutes. […] Only the working solution of microsomes was added to the Blank60 plate, and the incubation plates Blank60, T5, T15, T30, T45, and T60 except TO and NCF60 were then placed in a water bath at 37° C. for pre-incubation for about 10 minutes. To the TO plate sample, 600 μL of a stop solution (acetonitrile:methanol (95:5, v/v) solution containing 100 ng/mL tolbutamide (Sigma, T0891)) was added first, and then an NADPH regeneration system working solution was added. 98 μL of a potassium phosphate buffer was added to each well of the NCF60 plate and incubated for 60 minutes. After the pre-incubation in the incubation plates Blank60, T5, T15, T30, T45, and T60 was complete, 98 μL of the NADPH regeneration system working solution was added to each sample well to initiate the reaction. After an appropriate incubation time (such as 5, 15, 30, 45, and 60 minutes), 600 μL of the stop solution was added to each sample well and control sample well in the Blank60, […] the reaction. All the sample plates were shaken evenly and centrifuged at 3220×g for 20 minutes. 200 μL of each test sample supernatant was taken and diluted into 200 μL of an aqueous solution containing 0.3% formic acid for LC-MS/MS analysis, and 100 μL of the control sample supernatant was taken and diluted into 300 μL of pure water for LC-MS/MS analysis. Calculations were carried out according to the following formulas: […]

SMILES | IC50 [1] [nM] | IC50 [2] [nM] | GI50 [3] [nM] | GI50 [4] [nM] | GI50 [5] [nM] | GI50 [6] [nM] | half-life [7] [min] | microsomal CLint [7] [µL/min/mg] | CLint scaled [7] [mL/min/kg]
C#Cc1cccc2cccc(-c3ccc4c(N5CCN(C(=O)C(=C)F)[C@@H](CC#N)C5)nc(OCC56CCCN5CCC6)nc4c3F)c12 [Compound 11, (S)-2-(4-(7-(8-ethynylnaphth-1-yl)-8-fluoro-2-((tetrahydro-1H-pyrrolizin-7a(5H)-yl)methoxy)quinazolin-4-yl)-1-(2-fluoroacryloyl)piperazin-2-yl)acetonitrile] | 0.79 | 0.86 | 25.7 | 62.6 | 69.4 | 56.7 | 38.8 | 35.7 | 32.1
C=C(F)C(=O)N1CCN(c2nc(OCC34CCCN3CCC4)nc3c(F)c(-c4cc(O)cc5cccc(Cl)c45)c(F)cc23)C[C@@H]1CC#N [Compound 22A, 2-((2S)-4-(7-(8-chloro-3-hydroxynaphth-1-yl)-6,8-difluoro-2-((tetrahydro-1H-pyrrolizin-7a(5H)-yl)methoxy)quinazolin-4-yl)-1-(2-fluoroacryloyl)piperazin-2-yl)acetonitrile] | 0.47 | 0.76 | 7.23 | 23.9 | 34.1 | 11.1 | 39.2 | 35.6 | 33
C#Cc1c(F)ccc2cc(O)cc(-c3ccc4c(N5CCN(C(=O)C(=C)F)[C@@H](CC#N)C5)nc(OCC56CCCN5CCC6)nc4c3F)c12 [Compound 12, (S)-2-(4-(7-(8-ethynyl-7-fluoro-3-hydroxynaphth-1-yl)-8-fluoro-2-((tetrahydro-1H-pyrrolizin-7a(5H)-yl)methoxy)quinazolin-4-yl)-1-(2-fluoroacryloyl)piperazin-2-yl)acetonitrile] | 0.66 | 1.02 | 26.2 | 41.6 | 51.4 | 24.4 | 30.9 | 56.2 | 49.6
C#Cc1cccc2cccc(-c3c(F)cc4c(N5CCN(C(=O)C(=C)F)[C@@H](CC#N)C5)nc(OCC56CCCN5CCC6)nc4c3F)c12 [Compound 18B, 2-((2S)-4-(7-(8-ethynylnaphth-1-yl)-6,8-difluoro-2-((tetrahydro-1H-pyrrolizin-7a(5H)-yl)methoxy)quinazolin-4-yl)-1-(2-fluoroacryloyl)piperazin-2-yl)acetonitrile] | 0.5 | 0.68 | 4.89 | 12.8 | 29.9 | 8.92 | 44.2 | 35.6 | 33

The next compounds have a lower IC50 [1] than those just listed; values first:

IC50 [1] [nM] | IC50 [2] [nM] | GI50 [3] [nM] | GI50 [4] [nM] | GI50 [5] [nM] | GI50 [6] [nM] | half-life [7] [min] | microsomal CLint [7] [µL/min/mg] | CLint scaled [7] [mL/min/kg] | SMILES
0.24 | 0.58 | 3.44 | 17.8 | 33.3 | 11.6 | 26.7 | 53 | 49.7 | C#Cc1cccc2cc(O)cc(-c3c(F)cc4c(N5CCN(C(=O)C(=C)F)[C@@H](CC#N)C5)nc(OC[C@@]56CCCN5C[C@H](F)C6)nc4c3F)c12 [Compound 8A, 2-((2S)-4-(7-(8-ethynyl-3-hydroxynaphth-1-yl)-6,8-difluoro-2-(((2R,7aS)-2-fluorotetrahydro-1H-pyrrolizin-7a(5H)-yl)methoxy)quinazolin-4-yl)-1-(2-fluoroacryloyl)piperazin-2-yl)acetonitrile]
0.22 | 0.65 | 18.9 | 70.1 | 93.9 | 130 | 18.8 | 73.7 | 66.3 | C=C(F)C(=O)N1CCN(c2nc(OC[C@@]34CCCN3C[C@H](F)C4)nc3c(F)c(-c4cc(O)cc5cccc(Cl)c45)ccc23)C[C@@H]1CC#N [Compound 2]
0.25 | 0.52 | 4 | 7.6 | 5.5 | 4 | 17.1 | 81.3 | 73.2 | C#Cc1c(F)ccc2cc(O)cc(-c3c(F)cc4c(N5CCN(C(=O)C(=C)F)[C@@H](CC#N)C5)nc(OC[C@@]56CCCN5C[C@H](F)C6)nc4c3F)c12 [Compound 24A, 2-((2S)-4-(7-(8-ethynyl-7-fluoro-3-hydroxynaphth-1-yl)-6,8-difluoro-2-(((2R,7aS)-2-fluorotetrahydro-1H-pyrrolizin-7a(5H)-yl)methoxy)quinazolin-4-yl)-1-(2-fluoroacryloyl)piperazin-2-yl)acetonitrile]
0.44 | 1.15 | 5.2 | 39.4 | 50.6 | 9.06 | 25.5 | 54.3 | 48.9 | C#Cc1c(F)ccc2cc(O)cc(-c3ccc4c(N5CCN(C(=O)C(=C)F)[C@@H](CC#N)C5)nc(OC[C@@]56CCCN5C[C@H](F)C6)nc4c3F)c12 [Compound 4]
